T1: Arabidopsis thaliana HPPD (AtHPPD) (Arabidopsis thaliana, UniProt P93836)
T1 construct: expressed in transfected cells; host or cells: E. coli BL21 (DE3), pET16 vector
T1 sequence (P93836 1-445): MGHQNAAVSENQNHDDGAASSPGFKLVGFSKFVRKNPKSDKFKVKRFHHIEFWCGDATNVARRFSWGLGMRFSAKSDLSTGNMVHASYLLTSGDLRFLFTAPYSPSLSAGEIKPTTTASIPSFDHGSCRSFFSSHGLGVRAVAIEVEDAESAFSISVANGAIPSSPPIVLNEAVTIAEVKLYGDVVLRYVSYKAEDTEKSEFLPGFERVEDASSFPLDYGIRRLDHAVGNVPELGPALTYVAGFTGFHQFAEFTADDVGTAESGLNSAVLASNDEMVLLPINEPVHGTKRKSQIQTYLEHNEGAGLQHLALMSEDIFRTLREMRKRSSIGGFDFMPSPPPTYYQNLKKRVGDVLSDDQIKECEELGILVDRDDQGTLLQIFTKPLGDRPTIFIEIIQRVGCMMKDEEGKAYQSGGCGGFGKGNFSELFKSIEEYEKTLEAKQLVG

B1: AtHPPD: HPPD from Arabidopsis thaliana hppd cDNA (accession no. AF047834) (protein, UniProt P93836 1-445, looked up)
4-hydroxyphenylpyruvate …: T1 sequence (P93836 1-445)
B2: GmHPPD: the native G. max HPPD (Accession number: ABQ96868) (protein)
chain: MPIPCNEIQAQAQAQAQPGFKLVGFKNFVRTNPKSDRFQVNRFHHIEFWCTDATNASRRFSWGLGMPIVAKSDLSTGNQIHASYLLRSGDLSFLFSAPYSPSLSAGSSAASSASIPSFDAATCLAFAAKHGFGVRAIALEVADAEAAFSASVAKGAEPASPPVLVDDRTGFAEVRLYGDVVLRYVSYKDAAPQAPHADPSRWFLPGFEAAASSSSFPELDYGIRRLDHAVGNVPELAPAVRYLKGFSGFHEFAEFTAEDVGTSESGLNSVVLANNSETVLLPLNEPVYGTKRKSQIETYLEHNEGAGVQHLALVTHDIFTTLREMRKRSFLGGFEFMPSPPPTYYANLHNRAADVLTVDQIKQCEELGILVDRDDQGTLLQIFTKPVGDRPTIFIXIIQRIGCMVEDEEGKVYQKGACGGFGKGNFSELFKSIEEYEKTLEAKRTA
modifications: not fully specified; X: residue not identified in the source

Experiments:
[1] = test system: Arabidopsis control (wt, non-transformed) plants; assay: In-planta screen, control (non-transformed, wt) plants; format: in vivo
From the text: The hppd coding region was cloned into pPA35H binary vector under the control of the CaMV35S constitutive promoter and HSP terminator and was used to transform Arabidopsis plants using agrobacterium according to the dipping flower method, as essentially described in WO 2018/178975. T1 generation transformed seeds were germinated on Basta selection (Bayer) according to manufacturer instructions. […] HPPD resistant plants were detected one-week post germination.

[2] = test system: Arabidopsis plants transformed with Trichoderma spp-HPPD gene; assay: In-planta screen of plants transformed with fungal HPPD; format: in vivo
Method: The hppd coding region was cloned into pPA35H binary vector under the control of the CaMV35S constitutive promoter and HSP terminator and was used to transform Arabidopsis plants using agrobacterium according to the dipping flower method, as essentially described in WO 2018/178975. […] 3-4 days post germination, plants were treated with 0.1% and 0.05% Tembotrione (Laudis (Bayer)). HPPD resistant plants were detected one-week post germination.

[3] = test system: HPPD derived from the novel Trichoderma fungus (TP); assay: Bacterial HPPD-activity assay, E. coli BL21 (DE3) transformed with Trichoderma HPPD, brown halo; format: cell-based, Trichoderma spp.; conditions: E. coli BL21 (DE3) on agar screen plates, 25° C., 4 days
Method: (§1) E. coli BL21 (DE3) were transformed with the expression vector and monitored for HPPD activity using a colorimetric method as essentially explained in Rocaboy-Faquet. E. et al. (DOI: 10.1007/s00253-014-5793-5) with two minor modifications, namely: 1) The transformed bacteria were inoculated on an agar based medium instead of a liquid medium; 2) The screen was performed at 25° C. for 4 days.
(§2) The screen media was prepared with a concentration gradient of HPPD inhibitors at the indicated concentrations and the transformed bacteria were inoculated on the screening agar plates. HPPD activity was detected by a brown halo resulting from the HPPD-mediated conversion of p-hydroxyphenylpyruvate (HPP) into homogentisate (HGA), which later is oxidized to a melanin-like pigment. Tembotrione resistance of the transformed bacteria was compared to that of plates inoculated with E. coli BL21 (DE3) transformed with either an empty pET16 vector or a pET16 vector transformed with Arabidopsis thaliana hppd cDNA (accession no. AF047834).

[4] = target: T1, Arabidopsis thaliana HPPD (AtHPPD); assay: Bacterial HPPD-activity assay, E. coli BL21 (DE3) transformed with Arabidopsis thaliana hppd cDNA; format: cell-based; conditions: E. coli BL21 (DE3) on agar plates with concentration gradient of HPPD inhibitors, 25° C., 4 days
Method: as §1, §2

[5] = test system: G. max HPPD; assay: HPPD-activity screen of soy HPPD mutants in E. coli BL21 (DE3); format: cell-based
From the text: A brown halo is indicative of HPPD activity • GmHPPD SEQ ID NO: 118 ([…] […] […] […] […] […] […] AADVLTVDQIKQCEELGILVDRDDQGTLLQIFTKPVGDRPTIFIXIIQRIGC […]), the native G. max HPPD (Accession number: ABQ96868) • GmHPPD.1=GmHPPD (SEQ ID NO: 118) mutated to substitute its motif 1 with motif 1 of SEQ ID NO: 1—i.e. to include amino acid sequences SEQ ID NO: 9-10 or 38; • GmHPPD.2=GmHPPD (SEQ ID NO: 118) mutated to substitute its motif 6.2 (SEQ ID NO: 68) first Y with motif 6.2 of SEQ ID NO: 1 (SEQ ID NO: 20)—i.e. to include the mutation Tyr185Phe to include SEQ ID NO: 157; • GmHPPD.4=GmHPPD (SEQ ID NO: 118) mutated to substitute its motif 2.1 (SEQ ID NO: 57) with motif 2.1 of SEQ ID NO: 1 (SEQ ID NO: 11)—i.e. to include the mutation Ala254Trp to include SEQ ID NO: 129.

[6] = test system: Camelina plants; assay: In-planta screen of soy HPPD mutants; format: in vivo; conditions: T1 Camelina, Laudis (Tembotrione) 0.075% three days post seeding, images 19 days post treatment
Method: T1 generation transformed seeds of Camelina plants with the Soy HPPD (GmHPPD) mutated gene as compared to wt. Plant were treated with Laudis (Tembotrione) 0.075% three days post seeding. EGFP transformed plants were used as control. Images taken 19 days post treatment. The following were tested: • GmHPPD—SEQ ID NO: 118 the native G. max HPPD (Accession number: ABQ96868) • GmHPPD.1=GmHPPD (SEQ ID NO: 118) mutated to substitute its motif 1 with motif 1 of SEQ ID NO: 1—i.e. to include amino acid sequences set forth in SEQ ID NO: 9-10 or 38; • GmHPPD.2=GmHPPD (SEQ ID NO: 118) mutated to substitute its motif 6.2 (SEQ ID NO: 68) first Y with motif 6.2 of SEQ ID NO: 1 (SEQ ID NO: 20)—i.e. to include the mutation Tyr185Phe to include SEQ ID NO: 157; • GmHPPD.3=GmHPPD (SEQ ID NO: 118) mutated to substitute its motif 7.2 (SEQ ID NO: 70) first Y with motif 7.2 of SEQ ID NO: 1 (SEQ ID NO: 22)—i.e. to include the mutation Tyr243Phe; • GmHPPD.4=GmHPPD (SEQ ID NO: 118) mutated to substitute its motif 2.1 (SEQ ID NO: 57) with motif 2.1 of SEQ ID NO: 1 (SEQ ID NO: 11)—i.e. to include the mutation Ala254Trp to include SEQ ID NO: 129; • GmHPPD.5=GmHPPD (SEQ ID NO: 118) mutated to substitute its motif 3.1 with motif 3.1 of SEQ ID NO: 1—i.e. to include the replacement mutations 338-MPSPPP-343 to INVPG.

[7] = control (wt plants), Tembotrione 2500 and 500 μg/ml, Mesotrione 50 μg/ml, Topramezon 150 and 30 μg/ml, Isoxaflutole 50 μg/ml
[8] = T2 generation, Tembotrione x1=2500 and x0.2=500 μg/ml, Mesotrione x1=50 μg/ml, Topramezon x1=150 and x0.2=30 μg/ml, Isoxaflutole x1=50 μg/ml

Row | Molecule | plant growth in the presence of the herbicide [1, 7] | plant growth in the presence of the herbicide [2, 8] | further results
1 | CS(=O)(=O)c1ccc(C(=O)C2C(=O)CCCC2=O)c(Cl)c1COCC(F)(F)F [Tembotrione, tembotrione] | no plant growth or an acute growth inhibition and leaf bleaching | enabled growth | plant growth in the presence of the herbicide ([1]; control (non-transformed), 0.1% and 0.05% Tembotrione (Laudis)): no plant growth; plant growth in the presence of the herbicide ([2]; T1 plants on Basta selection, 0.1% and 0.05% Tembotrione (Laudis) 3-4 days post germination): enabled growth
2 | CS(=O)(=O)c1cc(C(F)(F)F)ccc1C(=O)c1cnoc1C1CC1 [Isoxaflutole, isoxaflutole] | no plant growth or an acute growth inhibition and leaf bleaching | enabled growth | 
3 | Cc1nn(C)c(OCC(=O)c2ccccc2)c1C(=O)c1ccc(Cl)cc1Cl [Pyrazoxyfen, pyrazoxyfen] |  |  | HPPD inhibitor concentration on plates at which HPPD activity (brown halo) was still detected [3]: ≤ 1250 µg/mL
4 | CS(=O)(=O)c1ccc(C(=O)C2C(=O)CCCC2=O)c([N+](=O)[O-])c1 [Mesotrione, mesotrione] | no plant growth or an acute growth inhibition and leaf bleaching | enabled growth | 
5 | Cc1c(C(=O)c2cnn(C)c2O)ccc(S(C)(=O)=O)c1C1=NOCC1 [Topramezone, topramezone] | no plant growth or an acute growth inhibition and leaf bleaching | enabled growth | 
6 | B1 |  |  | HPPD activity (brown halo) on HPPD inhibitor plates [4]: poor HPPD activity if at all
7 | B2 |  |  | HPPD enzymatic activity (brown halo) ([5]; 5 μM tembotrione): only minor enzymatic activity; HPPD enzymatic activity (brown halo) ([5]; 10 μM tembotrione): essentially no enzymatic activity; herbicide tolerance of transformed plants [6]: highly damaged
